# Molecular target: T1, mouse TRPV2 (Mus musculus, UniProt Q9WTR1)
# T1 construct: expressed in transfected cells; host or cells: HEK293
# T1 sequence (Q9WTR1 1-756): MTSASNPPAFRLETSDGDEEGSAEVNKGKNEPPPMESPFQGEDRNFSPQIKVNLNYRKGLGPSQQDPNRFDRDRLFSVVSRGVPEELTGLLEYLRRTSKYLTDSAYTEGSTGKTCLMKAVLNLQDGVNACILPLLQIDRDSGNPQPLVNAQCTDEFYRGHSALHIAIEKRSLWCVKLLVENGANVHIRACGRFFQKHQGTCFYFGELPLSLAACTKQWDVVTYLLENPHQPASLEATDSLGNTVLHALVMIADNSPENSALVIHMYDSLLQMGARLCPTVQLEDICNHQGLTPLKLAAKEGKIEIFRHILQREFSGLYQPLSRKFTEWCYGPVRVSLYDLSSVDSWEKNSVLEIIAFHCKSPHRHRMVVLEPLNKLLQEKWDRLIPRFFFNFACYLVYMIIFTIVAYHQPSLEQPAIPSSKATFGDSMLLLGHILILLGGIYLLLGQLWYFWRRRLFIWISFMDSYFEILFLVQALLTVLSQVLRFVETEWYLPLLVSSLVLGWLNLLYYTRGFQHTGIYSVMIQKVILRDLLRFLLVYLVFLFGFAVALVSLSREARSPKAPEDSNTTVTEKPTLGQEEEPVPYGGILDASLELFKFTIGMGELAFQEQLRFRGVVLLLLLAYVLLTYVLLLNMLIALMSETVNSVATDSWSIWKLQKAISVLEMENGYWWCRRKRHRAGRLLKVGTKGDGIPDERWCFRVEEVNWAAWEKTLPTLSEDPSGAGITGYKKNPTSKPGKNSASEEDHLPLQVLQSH
# Assay: fluo-4 Ca2+ assay selectivity, HEK cells expressing mouse TRPV2
# Format: cell-based
# Details: concentrations up to 50 μM
# Source text: KU-19-19 (DSMZ no. ACC 395), CAL-29 (DSMZ no. ACC 515), 647-V (DSMZ no. ACC 414), RT-4 (DSMZ no. ACC 412), and RT-112 (DSMZ no. ACC 418) bladder cancer cell lines were obtained from the Leibniz Institute DSMZ (German Collection of Microorganisms and Cell Cultures). Human TRPV3 (NM_145068, purchased from OriGene) and mouse TRPV3 (NM_001371006), rat TRPV1, mouse TRPV2, mouse TRPV4, human TRPM2, human TRPM8, and human TRPA1 were stably transfected in HEK293 cells as described before.[27] […]
# All fluorometric Ca^2+ assays were performed in HBS buffer at room temperature. […] For the primary compound screening and the generation of concentration-response analyses, a robotic liquid handling station (Freedom Evo 150; Tecan) with a built-in custom-made fluorescence plate imager was used. […] Fluorescence was excited using a 470-nm light-emitting diode, and emitted light was imaged through a 515-nm–long pass filter with a cooled Zyla 5.5 camera (Andor). Fluorescence was recorded and processed under the control of the μ-Manager 2.0 gamma software (https://micro-manager.org.[28]). After recording baseline fluorescence, compounds were dispensed into the wells via the liquid handling device. […] For further analysis, fluorescence signals were calculated for each well, corrected for background intensities and normalized to the initial signals. […]
compound,measurement,value
COC(=O)C12CN(Cc3ccccc3)CC1(C(=O)OC)CN(Cc1ccccc1)C2 (stereo not shown) [AV3-1],effect on TRPV2,no effect

# Source: PMC12881674, “Activation of TRPV3 channels in bladder cancer cells stimulates ATP release” (Molecular Pharmacology, 2025)
